≈ marks a conversion by molar mass, not a printed value.
Experiments:
[1] = system: C. albicans AIDS 68; experiment: MIC and MFC by microbroth dilution; type: cell-based; conditions: Candida albicans, AIDS68
Description: (§1) No substance was added, in one well, for growth control. A bacterial suspension of 1 × 10^8 CFU/mL was inoculated into all wells of the plate and incubated for 24 h at 37°C. […] The dilutions ranged from 4 to 2000 µg/mL for the substances. The inoculum size was about 2.5×10^3 cells/mL. The plates were incubated at 28°C for 24–48 h. The MIC was determined as the lowest substances' concentration where no visible bacterial or fungal growth was observed. […] Each antimicrobial assay was performed in triplicate.

[2] = system: C. tropicalis 45,615; experiment: MIC and MFC by microbroth dilution; type: cell-based; conditions: Candida tropicalis
Description: as §1

[3] = system: MRSA biofilm; experiment: Biofilm biomass by crystal violet (CV) assay; type: cell-based, Staphylococcus aureus
Description: (§2) For all bacterial strains considered in the study, biofilm was performed on a 96‐well plate inoculated with 200 µL of a bacterial suspension 1 × 10^6 CFU/mL and incubated 24 h at 37°C. After incubation for 4 h at 37°C, the medium was aspirated, non‐adherent cells were removed, washed with PBS and added with 200 µL of fresh medium. […] Similarly, to perform fungal biofilm, the different Candida species were grown for 24 h at 28°C on a multi‐wells plate, washed twice with sterile PBS, and then resuspended at 37°C in RPMI 1640 plus 10% FBS at 2.5 × 10^7 cells. After incubation for 3 h at 37°C in six‐well polystyrene plates, the medium was aspirated, non‐adherent cells were removed and washed with PBS.
(§3) To quantify bacterial and Candida biofilm biomass, CV, a dye able to color the biofilm matrix, was used. Firstly, after the removal of supernatant and washing with PBS, biofilm was fixed adding 100 µL of 99% methanol for 15 min. Then, methanol was rinsed off and the plates were air‐dried. Subsequently, 100 µL of a 0.1% of CV solution were added to wells and, after 20 min of contact, the plates were washed under running tap water. To dissolve the bounded CV, 150 µL of 33% of glacial acetic acid were added to wells. The absorbance was measured at 590 nm using an automatic microplate reader, Tecan Sunrise (Tecan Group Ltd., Männedorf, Switzerland).

[4] = system: S. aureus biofilm; experiment: Biofilm biomass by crystal violet (CV) assay; type: cell-based, Staphylococcus aureus; conditions: substance alone at MIC
Description: as §2, §3

[5] = system: C. glabrata biofilm; experiment: Biofilm biomass by crystal violet (CV) assay; type: cell-based, Candida glabrata
Description: as §2, §3

[6] = system: C. tropicalis biofilm; experiment: Biofilm biomass by crystal violet (CV) assay; type: cell-based, Candida tropicalis
Description: as §2, §3

[7] = system: MRSA biofilm; experiment: Biofilm metabolic activity by XTT-reduction assay; type: cell-based, Staphylococcus aureus; conditions: substance alone at MIC
Description: as §2
(§4) The biofilm metabolic activity was evaluated by XTT assay, that highpoints the activity through the reduction of the tetrazolium salt to formazan. After the removal of supernatant and washing with PBS, a solution of XTT‐menadione solution were added to wells. The XTT‐menadione was prepared dissolving XTT powder in prewarmed PBS (37°C) at 0.5 g/L. The solution was sterilized through a 0.22 μm pore size filter. Before each assay, the XTT solution was thawed and supplemented with menadione, a 10 mM stock dissolved in acetone to a final concentration 1 μM. Plates were incubated for 3 h at 37°C in the dark and then the absorbance was measured at 492 nm using the microplate reader, Tecan Sunrise.

[8] = system: S. aureus biofilm; experiment: Biofilm metabolic activity by XTT-reduction assay; type: cell-based, Staphylococcus aureus; conditions: substance alone at MIC
Description: as §2, §4

[9] = system: C. albicans biofilm; experiment: Biofilm metabolic activity by XTT-reduction assay; type: cell-based, Candida albicans
Description: as §2, §4

[10] = system: C. krusei biofilm; experiment: Biofilm metabolic activity by XTT-reduction assay; type: cell-based, Candida krusei
Description: as §2, §4

[11] = preformed biofilm (24 h), substance alone at MIC
[12] = biofilm in formation, sub-MIC concentrations alone or in combination (Table 5), listed as C
[13] = preformed biofilm, sub-MIC concentrations alone or in combination (Table 5), listed as C
[14] = biofilm in formation (3 h), substance alone at MIC

Cc1ccc(C(C)C)cc1O [Carvacrol, 2‐methyl‐5‐isopropyl phenol]
MFC [1]: 500 µg/mL (≈ 3.33 mM) | MIC [1]: 250 µg/mL (≈ 1.66 mM) | MFC [2]: 500 µg/mL (≈ 3.33 mM) | MIC [2]: 500 µg/mL (≈ 3.33 mM) | Percentage of biomass reduction ([3]; biofilm in formation (4 h), substance alone at MIC): 26.7% | Percentage of biomass reduction ([3]; biofilm in formation, sub-MIC concentrations alone or in combination (Table 5)): 30% | Percentage of biomass reduction [3, 11]: 58% | Percentage of biomass reduction ([4]; biofilm in formation (4 h)): 56.2% | Percentage of biomass reduction ([4]; preformed biofilm (24 h)): 71.5% | Percentage of biomass reduction [5, 12]: 64.9% | Percentage of biomass reduction [5, 11]: 52.9% | Percentage of biomass reduction [5, 13]: 44.3% | Percentage of biomass reduction [6, 12]: 25.3% | Percentage of biomass reduction [6, 11]: 57.4% | Percentage of biomass reduction [6, 13]: 20.8% | Percentage of metabolic activity reduction ([7]; biofilm in formation (4 h)): 24.6% | Percentage of metabolic activity reduction ([7]; preformed biofilm (24 h)): 45.6% | Percentage of metabolic activity reduction ([8]; biofilm in formation (4 h)): 54.9% | Percentage of metabolic activity reduction ([8]; preformed biofilm (24 h)): 88% | Percentage of metabolic activity reduction [9, 14]: 91% | Percentage of metabolic activity reduction [9, 12]: 55.1% | Percentage of metabolic activity reduction [9, 11]: 93% | Percentage of metabolic activity reduction [9, 13]: 44.9% | Percentage of metabolic activity reduction [10, 14]: 89.4% | Percentage of metabolic activity reduction [10, 12]: 30% | Percentage of metabolic activity reduction [10, 11]: 89.4% | Percentage of metabolic activity reduction [10, 13]: 25%

Source: article PMC12541891 (MicrobiologyOpen, 2025)
